Tests used:
[1] = tested on: Rat; experiment: concentration in brain after dosing; details: 12 h; dosed: Perfluorooctanoic acid; 12 mg/kg; oral; Male; Harlan Sprague Dawley
[2] = tested on: Rat; experiment: concentration in plasma after dosing; details: dosed: 678-39-7, 40 mg/kg, iv, Female, Harlan Sprague-Dawley
[3] = tested on: Rat; experiment: concentration in kidney after dosing; details: 3 h; dosed: Perfluorooctanoic acid; 12 mg/kg; oral; Male; Harlan Sprague Dawley
[4] = tested on: Rat; experiment: concentration in brain after dosing; details: oral, Harlan Sprague Dawley
[5] = tested on: Rat; experiment: concentration in kidney after dosing; details: oral
[6] = tested on: Rat; experiment: concentration in liver after dosing; details: 48 h; dosed: Perfluorooctanoic acid; 80 mg/kg; oral; Female; Harlan Sprague Dawley
[7] = tested on: Rat; experiment: concentration in plasma after dosing; details: dosed: 678-39-7, 40 mg/kg, iv, Female, Harlan Sprague-Dawley; remark: listed apart in the source
[8] = tested on: Rat; experiment: concentration in liver after dosing; details: oral
[9] = tested on: Rat; experiment: concentration in liver after dosing; details: 3 h; dosed: Fluorotelomer alcohol 8+2; 80 mg/kg; oral; Female; Harlan Sprague Dawley
[10] = tested on: Rat; experiment: concentration in plasma after dosing

O=C(O)C(F)(F)C(F)(F)C(F)(F)C(F)(F)C(F)(F)C(F)(F)C(F)(F)F [Perfluorooctanoic acid]
Details	concentration in brain [ng/g]	concentration in kidney [ng/g]	concentration in liver [ng/g]
[1]	1230	–	–
[3]	–	23700	–
[6]	–	–	616
[9]	–	–	2170

concentration in plasma [ng/mL]
Details	0.75 h	1 h	12 h	24 h
[2]	1830	–	528	–
[7]	–	2620	–	86.7

Details	concentration in brain [ng/g]	concentration in kidney [ng/g]	concentration in liver [ng/g]
[4], 3 h, dosed: Perfluorooctanoic acid, 12 mg/kg, Male	1300	–	–
[4], 3 h, dosed: Perfluorooctanoic acid, 80 mg/kg, Female	916	–	–
[4], 6 h, dosed: Perfluorooctanoic acid, 12 mg/kg, Male	1140	–	–
[4], 6 h, dosed: Perfluorooctanoic acid, 80 mg/kg, Female	4050	–	–
[4], 12 h, dosed: Perfluorooctanoic acid, 12 mg/kg, Male	1390	–	–
[4], 12 h, dosed: Perfluorooctanoic acid, 80 mg/kg, Female	1360	–	–
[4], 24 h, dosed: Perfluorooctanoic acid, 12 mg/kg, Male	1080	–	–
[4], 192 h, dosed: Perfluorooctanoic acid, 12 mg/kg, Male	584	–	–
[5], 0.5 h, dosed: Fluorotelomer alcohol 8+2, 80 mg/kg, Female, Harlan Sprague Dawley	–	284	–
[5], 1 h, dosed: Fluorotelomer alcohol 8+2, 24 mg/kg, Male, Harlan Sprague Dawley	–	190	–
[5], 1 h, dosed: Fluorotelomer alcohol 8+2, 80 mg/kg, Female, Harlan Sprague Dawley	–	677	–
[5], 3 h, dosed: Fluorotelomer alcohol 8+2, 24 mg/kg, Male, Harlan Sprague Dawley	–	270	–
[5], 3 h, dosed: Fluorotelomer alcohol 8+2, 80 mg/kg, Female, Harlan Sprague Dawley	–	1260	–
[5], 6 h, dosed: Fluorotelomer alcohol 8+2, 24 mg/kg, Male, Harlan Sprague Dawley	–	243	–
[5], 6 h, dosed: Fluorotelomer alcohol 8+2, 80 mg/kg, Female, Harlan Sprague Dawley	–	2480	–
[5], 12 h, dosed: Fluorotelomer alcohol 8+2, 24 mg/kg, Male, Harlan Sprague Dawley	–	419	–
[5], 12 h, dosed: Fluorotelomer alcohol 8+2, 80 mg/kg, Female, Harlan Sprague Dawley	–	874	–
[8], 0.5 h, dosed: Fluorotelomer alcohol 8+2, 24 mg/kg, Male, Harlan Sprague Dawley	–	–	325
[8], 0.5 h, dosed: Fluorotelomer alcohol 8+2, 24 mg/kg, Male, Harlan Sprague Dawley - this seems too small	–	–	211
[8], 0.5 h, dosed: Fluorotelomer alcohol 8+2, 80 mg/kg, Female, Harlan Sprague Dawley	–	–	434
[8], 1 h, dosed: Fluorotelomer alcohol 8+2, 24 mg/kg, Male, Harlan Sprague Dawley	–	–	751
[8], 1 h, dosed: Fluorotelomer alcohol 8+2, 80 mg/kg, Female, Harlan Sprague Dawley	–	–	816
[8], 3 h, dosed: Fluorotelomer alcohol 8+2, 24 mg/kg, Male, Harlan Sprague Dawley	–	–	1150
[8], 3 h, dosed: Fluorotelomer alcohol 8+2, 80 mg/kg, Female, Harlan Sprague Dawley	–	–	1540
[8], 6 h, dosed: Fluorotelomer alcohol 8+2, 24 mg/kg, Male, Harlan Sprague Dawley	–	–	1460
[8], 6 h, dosed: Fluorotelomer alcohol 8+2, 80 mg/kg, Female, Harlan Sprague Dawley	–	–	1970
[8], 12 h, dosed: Fluorotelomer alcohol 8+2, 24 mg/kg, Male, Harlan Sprague Dawley	–	–	2000
[8], 12 h, dosed: Fluorotelomer alcohol 8+2, 80 mg/kg, Female, Harlan Sprague Dawley	–	–	701

Details	concentration in brain [ng/g]
[4], 6 h, dosed: Fluorotelomer alcohol 8+2, 80 mg/kg, Female	224

Details	concentration in kidney [ng/g]	concentration in liver [ng/g]	concentration in plasma [ng/mL]
[5], 3 h, dosed: Perfluorooctanoic acid, 12 mg/kg, Male, Harlan Sprague Dawley	42500	–	–
[5], 3 h, dosed: Perfluorooctanoic acid, 80 mg/kg, Female, Harlan Sprague Dawley	70300	–	–
[5], 6 h, dosed: Perfluorooctanoic acid, 12 mg/kg, Male, Harlan Sprague Dawley	25600	–	–
[5], 6 h, dosed: Perfluorooctanoic acid, 80 mg/kg, Female, Harlan Sprague Dawley	263000	–	–
[5], 12 h, dosed: Perfluorooctanoic acid, 12 mg/kg, Male, Harlan Sprague Dawley	36200	–	–
[5], 12 h, dosed: Perfluorooctanoic acid, 80 mg/kg, Female, Harlan Sprague Dawley	61600	–	–
[5], 24 h, dosed: Perfluorooctanoic acid, 12 mg/kg, Male, Harlan Sprague Dawley	30400	–	–
[5], 24 h, dosed: Perfluorooctanoic acid, 80 mg/kg, Female, Harlan Sprague Dawley	11600	–	–
[5], 48 h, dosed: Perfluorooctanoic acid, 80 mg/kg, Female, Harlan Sprague Dawley	541	–	–
[5], 192 h, dosed: Perfluorooctanoic acid, 12 mg/kg, Male, Harlan Sprague Dawley	20300	–	–
[5], 528 h, dosed: Perfluorooctanoic acid, 12 mg/kg, Male, Harlan Sprague Dawley	3900	–	–
[5], 528 h, dosed: Perfluorooctanoic acid, 12 mg/kg, Male, Harlan Sprague Dawley - this seems too small	6140	–	–
[5], 1200 h, dosed: Perfluorooctanoic acid, 12 mg/kg, Male, Harlan Sprague Dawley	574	–	–
[8], 3 h, dosed: Perfluorooctanoic acid, 12 mg/kg, Male, Harlan Sprague Dawley	–	49900	–
[8], 3 h, dosed: Perfluorooctanoic acid, 80 mg/kg, Female, Harlan Sprague Dawley	–	35300	–
[8], 6 h, dosed: Perfluorooctanoic acid, 12 mg/kg, Male, Harlan Sprague Dawley	–	51000	–
[8], 6 h, dosed: Perfluorooctanoic acid, 80 mg/kg, Female, Harlan Sprague Dawley	–	197000	–
[8], 12 h, dosed: Perfluorooctanoic acid, 12 mg/kg, Male, Harlan Sprague Dawley	–	65600	–
[8], 12 h, dosed: Perfluorooctanoic acid, 80 mg/kg, Female, Harlan Sprague Dawley	–	52000	–
[8], 24 h, dosed: Perfluorooctanoic acid, 12 mg/kg, Male, Harlan Sprague Dawley	–	64800	–
[8], 24 h, dosed: Perfluorooctanoic acid, 80 mg/kg, Female, Harlan Sprague Dawley	–	7890	–
[8], 48 h, dosed: Perfluorooctanoic acid, 80 mg/kg, Female, Harlan Sprague Dawley	–	573	–
[8], 192 h, dosed: Perfluorooctanoic acid, 12 mg/kg, Male, Harlan Sprague Dawley	–	48600	–
[8], 528 h, dosed: Perfluorooctanoic acid, 12 mg/kg, Male, Harlan Sprague Dawley	–	14900	–
[8], 528 h, dosed: Perfluorooctanoic acid, 12 mg/kg, Male, Harlan Sprague Dawley - this seems too small	–	22600	–
[8], 1200 h, dosed: Perfluorooctanoic acid, 12 mg/kg, Male, Harlan Sprague Dawley	–	2160	–
[10], 0.25 h, dosed: 678-39-7, 12 mg/kg, iv, Male, F344	–	–	184
[10], 0.25 h, dosed: 678-39-7, 40 mg/kg, iv, Male, F344	–	–	257000
[10], 0.25 h, dosed: Fluorotelomer alcohol 8+2, 12 mg/kg, oral, Male, Harlan Sprague Dawley	–	–	14.2
[10], 0.5 h, dosed: 678-39-7, 12 mg/kg, iv, Male, F344	–	–	282
[10], 0.5 h, dosed: 678-39-7, 40 mg/kg, iv, Female, Harlan Sprague-Dawley	–	–	1570
[10], 0.5 h, dosed: 678-39-7, 40 mg/kg, iv, Male, F344	–	–	1510
[10], 0.5 h, dosed: Fluorotelomer alcohol 8+2, 12 mg/kg, oral, Male, Harlan Sprague Dawley	–	–	68.8
[10], 0.75 h, dosed: 678-39-7, 12 mg/kg, iv, Male, F344	–	–	203
[10], 0.75 h, dosed: 678-39-7, 40 mg/kg, iv, Female, Harlan Sprague-Dawley	–	–	1860
[10], 0.75 h, dosed: Fluorotelomer alcohol 8+2, 12 mg/kg, oral, Male, Harlan Sprague Dawley	–	–	159
[10], 1 h, dosed: 678-39-7, 12 mg/kg, iv, Male, F344	–	–	396
[10], 1 h, dosed: 678-39-7, 40 mg/kg, iv, Female, Harlan Sprague-Dawley	–	–	2280
[10], 3 h, dosed: 678-39-7, 12 mg/kg, iv, Male, F344	–	–	478
[10], 3 h, dosed: 678-39-7, 40 mg/kg, iv, Male, F344	–	–	2030
[10], 3 h, dosed: Fluorotelomer alcohol 8+2, 12 mg/kg, oral, Male, Harlan Sprague Dawley	–	–	423
[10], 5 min, dosed: 678-39-7, 12 mg/kg, iv, Male, F344	–	–	29.7
[10], 5 min, dosed: 678-39-7, 40 mg/kg, iv, Male, F344	–	–	189
[10], 6 h, dosed: 678-39-7, 12 mg/kg, iv, Male, F344	–	–	630
[10], 6 h, dosed: Fluorotelomer alcohol 8+2, 12 mg/kg, oral, Male, Harlan Sprague Dawley	–	–	634
[10], 9 h, dosed: 678-39-7, 12 mg/kg, iv, Male, F344	–	–	607
[10], 9 h, dosed: 678-39-7, 40 mg/kg, iv, Female, Harlan Sprague-Dawley	–	–	622
[10], 9 h, dosed: 678-39-7, 40 mg/kg, iv, Male, F344	–	–	702
[10], 9 h, dosed: Fluorotelomer alcohol 8+2, 12 mg/kg, oral, Male, Harlan Sprague Dawley	–	–	578
[10], 12 h, dosed: 678-39-7, 12 mg/kg, iv, Male, F344	–	–	364
[10], 12 h, dosed: 678-39-7, 40 mg/kg, iv, Female, Harlan Sprague-Dawley	–	–	353
[10], 12 h, dosed: 678-39-7, 40 mg/kg, iv, Male, F344	–	–	12300
[10], 12 h, dosed: Fluorotelomer alcohol 8+2, 12 mg/kg, oral, Male, Harlan Sprague Dawley	–	–	507
[10], 24 h, dosed: 678-39-7, 12 mg/kg, iv, Male, F344	–	–	460
[10], 24 h, dosed: 678-39-7, 40 mg/kg, iv, Female, Harlan Sprague-Dawley	–	–	52.2
[10], 48 h, dosed: Fluorotelomer alcohol 8+2, 12 mg/kg, oral, Male, Harlan Sprague Dawley	–	–	536
[10], 192 h, dosed: 678-39-7, 12 mg/kg, iv, Male, F344	–	–	260
[10], 192 h, dosed: Fluorotelomer alcohol 8+2, 12 mg/kg, oral, Male, Harlan Sprague Dawley	–	–	356
